In brackets after ≈: the same amount, converted by molar mass.
How the values were obtained:
[1] = system: crude intestinal α-glucosidase; experiment: In-vitro mammalian (rat intestinal) α-glucosidase inhibition assay; assay type: biochemical; conditions: for Mammalian α Glucosidase Inhibition (Mean ± S.E): highest concentration 5 mg/ml
Summary of the method: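 p-Nitrophenol release (405 nm) from 5 mM p-nitrophenyl glucoside, read 5 min after substrate addition following 5 min sample–enzyme preincubation in pH 6.8 phosphate buffer. Enzymes: baker's yeast α-glucosidase (0.76 U/ml) and sonicated rat intestinal acetone powder supernatant. Blank-corrected inhibition vs DMSO; IC50 by log regression.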

mice = experiment: Adenosine mediated bronchoconstriction and lung inflammation in an allergic mouse model; assay type: in vivo; design: Total count: unit not given here; conditions: BAL fluid cells; 100 mg/kg oral
Summary of the method: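 Male mice sensitized i.p. with ragweed (days 1, 6), challenged with 0.5% ragweed aerosol twice daily for 3 days; 24 h later dosed orally (acacia suspension; theophylline 100 mg/kg), then challenged with adenosine (24 mg/ml) 2 h post-dose. Respiration recorded by kymograph under pentobarbitone; BAL total and differential cell counts.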

rats = experiment: Collagen induced arthritis; assay type: in vivo, rat; conditions: collagen induced study; BN compounds 100 mg/kg, Indomethacin 2.5 mg/kg
Excerpt: Group I—Normal Control; Group II—Arthritic control; Group III—Arthritic rats administered with Synthetic compound BN-4; Group IV—arthritic rats administered with compound BN-14; Group V—arthritic rats administered with BN-16; Group VI—arthritic rats administered with standard drug indomethacin. […] The test and indomethacin doses continued up to 21 days in FCA induced model and 24 days in collagen induced model. […] Before sacrificing the animals, blood was collected and used for estimation of total leukocyte count, TNF-α and IL-1β. […] In collagen induced study the total WBC count was analyzed by using cell counter and count as follows; […]

Wistar rats = experiment: Freund's complete adjuvant (FCA) induced arthritis; assay type: in vivo, rat; conditions: 17th day and 21st day, 100 mg/kg, vs arthritic control
yeast α-glucosidase = target: T1, yeast α-glucosidase (Saccharomyces cerevisiae, UniProt P53341); experiment: In-vitro yeast α-glucosidase inhibition assay; assay type: biochemical, bakers yeast
T1 construct: α-Glucosidase [(EC 3.2.1.20) Type I: from bakers yeast]
T1 sequence (P53341 whole entry): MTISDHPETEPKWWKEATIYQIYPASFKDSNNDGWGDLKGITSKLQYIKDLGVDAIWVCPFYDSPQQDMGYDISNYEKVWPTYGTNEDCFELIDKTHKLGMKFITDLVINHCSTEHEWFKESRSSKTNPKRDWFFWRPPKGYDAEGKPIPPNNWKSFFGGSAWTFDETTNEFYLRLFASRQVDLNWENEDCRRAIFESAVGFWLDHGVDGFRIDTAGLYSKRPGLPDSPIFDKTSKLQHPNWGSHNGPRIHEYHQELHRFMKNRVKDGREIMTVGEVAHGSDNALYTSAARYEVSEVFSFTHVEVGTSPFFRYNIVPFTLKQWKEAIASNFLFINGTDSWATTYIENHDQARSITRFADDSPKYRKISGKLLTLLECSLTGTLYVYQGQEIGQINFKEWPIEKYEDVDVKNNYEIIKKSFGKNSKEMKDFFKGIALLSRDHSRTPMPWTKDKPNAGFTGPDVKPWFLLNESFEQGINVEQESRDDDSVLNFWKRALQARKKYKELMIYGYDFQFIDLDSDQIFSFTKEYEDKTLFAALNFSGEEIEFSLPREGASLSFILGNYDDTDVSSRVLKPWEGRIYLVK
Excerpt: Chemicals: α-Glucosidase [(EC 3.2.1.20) Type I: from bakers yeast], rat intestinal acetone powder (as a source of crude intestinal α-glucosidase), α-amylase [EC 3.2.1.1) Type VI B: from porcine pancreas], p-nitrophenyl α-D-glucopyranoside, 3,5-dinitro salicylic acid, soluble potato starch and 1-deoxyrojirimycine, were purchased from Sigma Chemical Co., St Louis, Mo., USA. Other chemicals of analytical grade were procured from indigenous manufacturers.
In-vitro a-Glucosidase Inhibition Assay: Yeast and intestinal a-glucosidase inhibitory activities were determined as per reported methods (Babu et al., 2004; Mc Dougall et al., 2005). Rat intestinal acetone powder in normal saline (100% w/v) was sonicated properly and the supernatant was used as a source of crude intestinal a-glucosidase after centrifugation. In brief, 20 μl, of test samples (100 mg/ml DMSO solution) were reconstituted in 100 μl of 100 mM-Phosphate buffer (pH 6.8) in a 96-well microplate and incubated with 50 μl yeast a-glucosidase (0.76 μ/ml in same buffer) or crude intestinal a-glucosidase for 5 min before 50-μl substrate (5 mM, […] prepared in same buffer) was added. Release of p-nitrophenyol was measured at 405 nm spectrophotometrically (Spectra Mas Plus 384, Molecular Device corporation, Sunnyvale, Calif., USA) 5 min after incubation with substrate, individual blank for test samples were prepared to correct background absorbance where the substrate was replaced with 50 μl of buffer. The control sample contained 20 μl DMSO in place of test samples. The percentage of enzyme inhibition was calculated as (A−B/A)×100 where A is represents the absorbance of the control without test samples, and B represents the absorbance in the presence of test samples. […] The IC50 values were calculated by applying logarithmic regression analysis from the mean inhibitory values.

Structure (SMILES)	Mammalian α-glucosidase inhibitory activity (in words) [1]	Mammalian α Glucosidase Inhibition (Mean ± S.E) [1]	Differential count (%) Eosinophils (mice)	Differential count (%) Lymphocytes (mice)	Differential count (%) Monocytes (mice)	Total count (mice)	Total WBC count (rats)	Arthritic scoring (Wistar rats)	also measured
Nc1c2c(nc3sc4c(c13)CCC4)CCCC2 [BN-14, 2,3,6,7,8,9-Hexahydro-1H-cyclopenta[4,5]thieno[2,3-b]quinolin-10-amine]	significant inhibitory activity	58.37%	15%	80%	13.5%	13.5	14.88±2.64	significantly reduced	Mammalian α-glucosidase inhibition (Mean ± S.E) ([1]; 0.039063 mg/ml): 7.79 ± 3.11%; Mammalian α-glucosidase inhibition (Mean ± S.E) ([1]; 0.078125 mg/ml): 20.75 ± 2.19%; Mammalian α-glucosidase inhibition (Mean ± S.E) ([1]; 0.15625 mg/ml): 26.76 ± 1.37%; Mammalian α-glucosidase inhibition (Mean ± S.E) ([1]; 0.3125 mg/ml): 34.49 ± 1.19%; Mammalian α-glucosidase inhibition (Mean ± S.E) ([1]; 0.625 mg/ml): 40.62 ± 0.63%; Mammalian α-glucosidase inhibition (Mean ± S.E) ([1]; 1.25 mg/ml): 51.56 ± 0.74%; Mammalian α-glucosidase inhibition (Mean ± S.E) ([1]; 2.5 mg/ml): 54.74 ± 1.01%; Mammalian α-glucosidase inhibition (Mean ± S.E) ([1]; 5 mg/ml): 58.37 ± 2.20%; IC50 ([1]; mammalian α-glucosidase, dose response study): 1560 µg/mL (≈ 6.38 mM); Yeast α-glucosidase enzyme inhibitory activity (in words) (yeast α-glucosidase): strong significant inhibitory activity; inhibition at 39.063 µg/mL (yeast α-glucosidase; yeast α-glucosidase, 0.039063 mg/ml, read-out: % Inhibition (Mean ± S.E)): 19.6%; inhibition at 78.125 µg/mL (yeast α-glucosidase; yeast α-glucosidase, 0.078125 mg/ml, read-out: % Inhibition (Mean ± S.E)): 25.84 ± 0.13%; inhibition at 156.25 µg/mL (yeast α-glucosidase; yeast α-glucosidase, 0.15625 mg/ml, read-out: % Inhibition (Mean ± S.E)): 33.31 ± 0.04%; inhibition at 312.5 µg/mL (yeast α-glucosidase; yeast α-glucosidase, 0.3125 mg/ml, read-out: % Inhibition (Mean ± S.E)): 42.8 ± 1.38%; inhibition at 625 µg/mL (yeast α-glucosidase; yeast α-glucosidase, 0.625 mg/ml, read-out: % Inhibition (Mean ± S.E)): 50.3 ± 3.39%; inhibition at 1250 µg/mL (yeast α-glucosidase; yeast α-glucosidase, 1.25 mg/ml, read-out: % Inhibition (Mean ± S.E)): 63.8 ± 1.71%; inhibition at 2500 µg/mL (yeast α-glucosidase; yeast α-glucosidase, 2.5 mg/ml, read-out: % Inhibition (Mean ± S.E)): 67.8 ± 1.18%; inhibition at 5000 µg/mL (yeast α-glucosidase; yeast α-glucosidase, 5 mg/ml, read-out: % Inhibition (Mean ± S.E)): 72.2 ± 1.87%
Cc1sc2nc3c(c(N)c2c1C)CCCCC3 [BN-4, 2,3-dimethyl-6,7,8,9-tetrahydro-5H-cyclohepta[b]thieno[3,2-e]pyridin-4-amine]	moderate inhibitory activity	38.37 ± 1.0%		80%	20%	9	13.57±0.63	significantly reduced	
Nc1c2c(nc3sc4c(c13)CCC4)CCCCC2 [BN-16, 1,2,3,6,7,8,9,10-Octahydrocyclohepta[b]cyclopenta[4,5]thieno[3,2-e]pyridine-11-amine]		4.46 ± 1.77%	12%	90%	15%	8	15.70±1.28	significantly reduced	
COc1ccc2c(c1)c(CC(=O)O)c(C)n2C(=O)c1ccc(Cl)cc1 [Indomethacin, reference compound]							19.70±2.23		

From patent publication US20110269790A1, “NOVEL THIENOPYRIDINES AS PHARMACOLOGICALLY ACTIVE AGENTS” (priority 2009, published 2011)
